Experimental data published in paper PMC11413853, “Discovery of VU6007496: Challenges in the Development of an M1 Positive Allosteric Modulator Backup Candidate” (ACS Chemical Neuroscience, 2024).
Where two headings read alike, the source gives them in different places.

Experiments:
[1] = IV/PO pharmacokinetics, dog; assay type: in vivo, dog (beagle or mongrel); details: for clearance / Vd / half-life: plasma, 1 mg/kg; for clearance: read-out: CLp; for Vd: read-out: Vss; for half-life: read-out: elimination t1/2 (converted)
Text: We next conducted multispecies IV/PO PK in parallel as a potential discerning data set.

CYP3A4 = CYP3A4 (Homo sapiens, UniProt P08684); assay: CYP inhibition, 3A4; assay type: in vitro ADME
[2] = Predicted hepatic clearance, rat hepatic microsomes; assay type: in vitro ADME
Method: Intrinsic clearance: Human or rat hepatic microsomes (0.5 mg/mL) and 1 µM test compound were incubated in 100 mM potassium phosphate pH 7.4 buffer with 3 mM MgCl2 at 37 °C with constant shaking. After a 5 min preincubation, the reaction was initiated by the addition of NADPH (1 mM). At selected time intervals (0, 3, 7, 15, 25, and 45 min), aliquots were taken and subsequently placed into a 96-well plate containing cold acetonitrile with internal standard (50 ng/mL carbamazepine). Plates were then centrifuged at 3000 rcf (4 °C) for 10 min, and the supernatant was transferred to a separate 96-well plate and diluted 1:1 with water for LC/MS/MS analysis. The in vitro half-life ( 1/2, min, Eq. 1), intrinsic clearance (CLint, mL/min/kg, Eq. 2), and subsequent predicted hepatic clearance (CLhep, mL/min/kg, Eq. 3) was determined employing the […]
where k represents the slope from linear regression analysis of the natural log percent remaining of a test compound as a function of incubation time […]
(2) CLint = in vitroT1/2 x mg microsomes x gram liver x kg body wt ascale-up factors: of 20 (human) or 45 (rat) […]
where Qh (hepatic blood flow, mL/min/kg) is 21 (human) or 70 (rat).
LC/MS/MS Bioanalysis of Samples from Plasma Protein Binding and Intrinsic Clearance […]
Samples were analyzed on a Thermo Electron TSQ Quantum Ultra triple quad mass spectrometer (San Jose, CA) via electrospray ionization (ESI) with two Themo Electron Accella pumps (San Jose, CA), and a Leap Technologies CTC PAL autosampler (Carrboro, NC). Analytes were separated by gradient elution on a dual column system with two Thermo Hypersil Gold (2.1 x 30 mm, 1.9 µm) columns (San Jose, CA) thermostated at 40 °C. HPLC mobile phase A was 0.1% formic acid in water and mobile phase B was 0.1% formic acid in acetonitrile. The gradient started […]
for 0.2 min; returned to 10% B in 0.1 min. The total run time was 1.3 min and the HPLC flow rate was 0.8 mL/min. […]

[3] = Plasma protein binding, rat; assay type: in vitro ADME; details: pH 7.4, read-out: fu,plasma rat
Method: Plasma protein binding and Brain homogenate binding: Determination of fraction unbound (f u) in plasma was conducted in vitro via equilibrium dialysis using HTDialysis (HTD) membrane plates. The top half of the plate was filled with 100 uL of Dubelco’s Phosphate Buffered Saline, pH 7.4 (DPBS). Compounds were diluted into plasma from each species (5 µM final concentration), which was aliquoted in triplicate to the ‘bottom half’ of the prepared HTD plate wells. The HTD plate was sealed and incubated for 6 hours at 37 °C. Following incubation, each well (both top and bottom halves) were transferred (20 µL) to the corresponding wells of a 96-shallow-well (V-bottom) plate. The daughter plates were then matrix-matched (DPBS side wells received equal volume of plasma, and plasma side wells received equal volume of DPBS), and extraction solution (120 µL; acetonitrile containing 50 nM carbamazepine as IS) was added to all wells of both daughter plates to precipitate protein and extract test article. The plates were then sealed and centrifuged (3500 rcf) for 10 minutes at ambient temperature. Supernatant (60 µL) from each well of the daughter plates was then transferred to the corresponding wells of new daughter plates (96-shallow-well, V bottom) containing water (Milli-Q, 60 µL/well), and the plates were sealed in preparation for LC-MS/MS analysis (see LC-MS/MS analysis method below).
The unbound fraction (f u) was calculated following the equation below, and mean values for each species were calculated from 3 replicates. […]
Fraction unbound for both plasma and brain samples was determined using Equation 4.
Equation 4 Determination of fraction unbound in plasma.

CYP2D6 = CYP2D6 (Homo sapiens, UniProt P10635); assay: CYP inhibition, 2D6; assay type: in vitro ADME
human M1 = biological target: T1, human M1 (Homo sapiens, UniProt P11229); assay: Calcium mobilization assay, human M1 (agonist and PAM modes); assay type: cell-based; details: for hM1 PAM AChmax (%) / hM1 Agonist AChmax (%): % ACh max
T1 sequence (P11229 1-460): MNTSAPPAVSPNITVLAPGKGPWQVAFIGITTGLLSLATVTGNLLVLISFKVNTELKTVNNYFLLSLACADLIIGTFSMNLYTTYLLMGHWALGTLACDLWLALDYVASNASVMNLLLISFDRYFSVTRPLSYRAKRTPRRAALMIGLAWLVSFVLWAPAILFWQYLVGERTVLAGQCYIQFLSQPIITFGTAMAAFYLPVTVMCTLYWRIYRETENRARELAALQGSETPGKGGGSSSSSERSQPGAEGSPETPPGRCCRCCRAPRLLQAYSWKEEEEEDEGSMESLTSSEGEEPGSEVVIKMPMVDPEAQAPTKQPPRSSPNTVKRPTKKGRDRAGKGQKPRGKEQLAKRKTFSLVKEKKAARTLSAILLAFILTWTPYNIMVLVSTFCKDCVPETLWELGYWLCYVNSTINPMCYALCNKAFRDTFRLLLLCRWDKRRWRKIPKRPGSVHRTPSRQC

rM2-5 = assay: Muscarinic selectivity, rat M2-5; assay type: cell-based
[4] = PAM mode, read-out: hM1 PAM EC50
[5] = agonist mode, read-out: hM1 Agonist EC50
[6] = agonist mode, read-out: human M1 agonism EC50
[7] = hM1 PAM EC50, PAM mode, read-out: hM1 PAM pEC50 (converted)

CYP3A4, sequence (P08684 whole entry): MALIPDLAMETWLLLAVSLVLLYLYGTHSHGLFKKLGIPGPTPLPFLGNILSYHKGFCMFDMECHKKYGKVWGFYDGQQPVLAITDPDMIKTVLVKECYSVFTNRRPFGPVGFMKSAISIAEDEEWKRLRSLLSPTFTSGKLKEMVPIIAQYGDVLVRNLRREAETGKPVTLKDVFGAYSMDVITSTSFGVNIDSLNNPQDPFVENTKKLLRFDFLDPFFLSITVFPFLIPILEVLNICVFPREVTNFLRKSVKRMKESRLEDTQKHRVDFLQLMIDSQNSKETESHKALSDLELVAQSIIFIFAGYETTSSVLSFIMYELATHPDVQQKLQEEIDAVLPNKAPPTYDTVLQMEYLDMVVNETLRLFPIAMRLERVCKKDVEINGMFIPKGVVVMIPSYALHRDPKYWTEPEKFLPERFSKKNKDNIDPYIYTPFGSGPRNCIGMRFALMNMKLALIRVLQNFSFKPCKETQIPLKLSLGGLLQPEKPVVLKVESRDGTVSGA
CYP2D6, sequence (P10635 whole entry): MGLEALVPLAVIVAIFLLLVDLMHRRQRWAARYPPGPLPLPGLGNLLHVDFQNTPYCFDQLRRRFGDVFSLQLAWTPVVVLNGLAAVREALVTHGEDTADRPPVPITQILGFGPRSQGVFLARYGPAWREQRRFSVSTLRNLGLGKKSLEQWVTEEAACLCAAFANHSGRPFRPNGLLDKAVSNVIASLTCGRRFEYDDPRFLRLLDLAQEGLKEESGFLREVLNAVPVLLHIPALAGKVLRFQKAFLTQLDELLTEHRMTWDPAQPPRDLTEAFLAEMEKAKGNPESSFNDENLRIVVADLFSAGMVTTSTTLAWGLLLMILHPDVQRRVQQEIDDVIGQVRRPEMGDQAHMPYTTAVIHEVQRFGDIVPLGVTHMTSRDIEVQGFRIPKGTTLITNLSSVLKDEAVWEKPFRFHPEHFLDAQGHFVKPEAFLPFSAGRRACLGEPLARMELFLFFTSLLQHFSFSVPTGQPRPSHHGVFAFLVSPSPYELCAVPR

Row | Compound | F (%) po ([1]; dose iv/po 1/3 mg/kg) | clearance ([1]; dose iv/po 1/3 mg/kg) | Vd ([1]; dose iv/po 1/3 mg/kg) | half-life ([1]; dose iv/po 1/3 mg/kg) | IC50 (CYP3A4) | Predicted CLhep, rat [2] | fraction unbound at 6 h, 5 µM [3] | IC50 (CYP2D6) | hM1 PAM AChmax (%) (human M1; PAM mode) | EC50 (human M1; [4]) | hM1 Agonist AChmax (%) (human M1; agonist mode) | EC50 (human M1; [5]) | EC50 (human M1; [6]) | EC50 (human M1; [7]) | EC50 (rM2-5) | activity on rat M2–5 (rM2-5) | F (%) po ([1]; dose iv/po 1/5 mg/kg) | clearance ([1]; dose iv/po 1/5 mg/kg) | Vd ([1]; dose iv/po 1/5 mg/kg) | half-life ([1]; dose iv/po 1/5 mg/kg)
1 | Cn1ccc(-c2ccc(Cc3cc(C(=O)NC4CCOCC4)nc4ccsc34)cc2)n1 [compound 12] | 9% | 1.3 mL/min/kg | 4 L/kg | 36.6 h | > 30 µM | 33 mL/min/kg | 0.015 | > 30 µM | 73% | 0.149 µM | 38% | 3.06 µM | 3.1 µM | 0.132 µM | > 30 µM | – | – | – | – | –
2 | Cn1ccc2nc(C(=O)NC3CCOCC3)cc(Cc3ccc(-c4cc[nH]n4)cc3)c21 [compound 24] | – | – | – | – | 5.7 µM | 44 mL/min/kg | 0.134 | > 30 µM | 73% | 0.144 µM | 36% | – | 2.1 µM | – | – | inactive | – | – | – | –
3 | Cn1ccc(-c2ccc(Cc3cc(C(=O)NC4CCOCC4)nc4ccn(C)c34)cc2)n1 [compound 11] | – | – | – | – | > 30 µM | 38 mL/min/kg | 0.04 | > 30 µM | 80% | 0.228 µM | 24% | > 10 µM | – | 0.166 µM | > 30 µM | – | 35% | 2.4 mL/min/kg | 2.2 L/kg | 12.8 h
